Experimental findings from patent US11149277B2, “Method of producing enriched exosomes” (National Health Research Institutes, priority 2016, dated 2021) are described below.

In experiment [1] the test system is mesenchymal stem cells (MSCs). Nature of the experiment: EV/exosome release from mesenchymal stem cells. In kind it is cell-based. The following applies: GW for 8 days. An excerpt: FIG. 10 includes blots and a graph. (A) is a graph showing vesicle number analysis of GW-treated mesenchymal stem cells (MSCs) P4 fractions. The CM-P4 GW-treated MSCs were collected and subjected to NanoSight Nanoparticle Tracking Analysis (NTA). Quantification of EV/exosome release is shown as the ratio of [vesicle number]/[cell number]. Data are means±SEM (n=3). ***P≤0.001. (B) is a set of blots showing the protein contents measured in the EV/exosome fraction released by MSCs treated with vehicle DMSO (MSC) or EP4 antagonists (MSCGW). The culture media (D1-4: conditioned medium from day 1 to day 4; D5-8: conditioned medium from day 5 to day 8) were collected from MSCs treated with vehicle (MSC), or GW (MSCGW) for 8 days. (C) is a set of blots showing the protein contents measured in the EV/exosome fraction released by neural stem cells (NSCs) treated with vehicle DMSO or EP4 antagonists. […]
(A) Vesicle number of GW-treated MSC P4 fractions was analyzed. […] (B) Proteins were measured in the EV/exosome fraction released by MSCs treated with vehicle DMSO, EP4 antagonists (GW), or EP4 agonist PGE2. […] (C) Cytokines were measured in the EV/exosome fraction released by MSCs treated with DMSO (MSC) or EP4 antagonist (MSCGW). […] EV/exosome cytokines released by the same number of MSCs were measured using cytokine arrays (C) and Bio-plex (D; IL-10). […]

For another experiment, the system named is MDA-MB-231 cells. Description: NTA and EV protein of CM-P4 fractions of MDA-MB-231 cells. In kind it is cell-based, human. An excerpt:
(A) Quantification of EV/exosome release, shown as the number of particles in the CM-P4 fractions released per cell, from MCF-7 and MDA-MB-231 breast cancer cells treated with vehicle or with the indicated concentrations of GW627368X. Particles in the P4 fractions were counted using nanoparticle tracking analysis. Data are means±SEM (n=10). *P≤0.05, ***P≤0.001. (B) Quantification of the total EV protein released from MCF-7 and MDA-MB-231 cells treated with vehicle or with the indicated concentrations of GW627368X. The amounts (m) of protein present per cell in the conditioned medium P4 fractions are presented as means±SEM (n=3). *P≤0.05; (C) Protein levels in the P4 EV/exosome fractions and cell lysates, analyzed by Western blot. Culture media and cell lysates were collected from the same numbers of MCF-7 and MDA-MB-231 cells treated with vehicle or with GW627368X (GW), at the indicated concentrations, for 4 days. The P4 fractions of the culture media, containing EVs, were isolated. […]
We next examined whether blocking EP4-mediated signaling with an EP4 antagonist can elicit EV-mediated removal of CSC proteins (e.g., mesenchymal markers and stem cell markers) in the human breast carcinoma MCF-7 and MDA-MB-231 cell lines. P4 fractions from the conditioned media (CM-P4) of GW-treated MCF-7 and MDA-MB-231 cells were analyzed using NTA (FIG. 21, A). […]

In a further experiment the test system is NAMECs. Nature of the experiment: Resistance of NAMECs to 0.05% trypsin (MET). The format is cell-based, human. The following applies: 4 days treatment. The procedure: FIG. 3 includes a set of images and two graphs. (A) is a set of bright-field images of NAMECs treated with vehicle, GW627368X, Dynasore (1 μM), or GW627368X plus Dynasore (0.5, 1, 1.5 μM) for 4 days. Scale bar, 100 μm. (B) is a graph showing the percentage of NAMECs treated with vehicle, GW627368X, Dynasore (1 μM), or GW627368X plus Dynasore (0.75 and 1 μM) that were resistant to 0.05% trypsin. Data are means±SEM, (n=3). ***P≤0.001. (C) is a graph showing Boyden chamber migration of NAMECs treated with vehicle (Crl), GW627368X, Dynasore (1 μM), or GW627368X plus Dynasore (0.5, 0.75, 1 μM) for 4 days. Data are means±SEM (n=3). **P≤0.005. ***P≤0.001.

The structures appear in SMILES notation.

With `CCOc1c2c(c(OCC)c3ccccc13)C(=O)N(c1ccc(CC(=O)NS(=O)(=O)c3ccccc3)cc1)C2` [GW627368X], the “release of EVs/exosomes from MSCs” value in experiment [1] is “increased the release of EVs/exosomes”. Moreover, in the experiment with MDA-MB-231 cells (GW-treated MDA-MB-231), the “amount of protein per cell in the EV/exosome fraction” value is recorded as 10 fold. Further, the “numbers of EVs released” value in the experiment with MDA-MB-231 cells (increasing concentrations of GW) is “modestly increased”. Moreover, the “resistance to disassociation by 0.05% trypsin” value in the experiment with NAMECs was “more resistant”.
